These results are taken from patent publication US4375478A, “Aminobenzoic acid derivatives” (Abbott Laboratories, priority 1982, dated 1983).

Data set [1] has as its system acyl-coenzyme A:cholesterol acyl transferase (ACAT). The data set is described as follows: Acyl-coenzyme A:cholesterol acyl transferase (ACAT) assay in vitro, liver microsomal protein, cholesterol oleate formation. The class given is biochemical. The conditions noted are these: for ACAT inhibition: 1.0×10^-4 M; for Cholesterol Oleate CPM + S.D. / Cholesterol Oleate Inhibition Percent: 1.0 × 10^-4 M, Ethanol. Background: Liver microsomes are vesicles of endoplasmic reticulum, rich in cytochrome P450 enzymes.

Data set [2] has the same test system. The following applies: 1.0×10^-4 M; cited from earlier work.
Data set [3] is described as follows: Solubility in the ACAT incubation medium with ethanol. The following applies: 1% alcohol, 1.0×10^-4 M. The class given is physicochemical. Here is the method:
The plate was developed in a hexane:diethyl ether:acetic acid solution (90:10:1) and the cholesterol oleate area was visualized with iodine vapor. The cholesterol oleate spot (Rf=0.70) was scraped from the plate and counted in Packard Scinto Liquid. Samples were run in triplicate, and percent inhibition was calculated utilizing controls with sample solvent only. Compounds were dissolved in ethanol, and the final concentration in the incubation medium was 1.0% in the first experiment and 2.5% in the second.

The test system of a further data set is gerbils. The experiment in a line: Plasma lipoprotein effects in gerbils. Type of data set: in vivo, gerbil. The following applies: for HDL-C, After Test / LDL-C plus VLDL-C, After Test / Total Cholesterol, After Test / HDL-C, Before Test / LDL-C plus VLDL-C, Before Test / Total Cholesterol, Before Test / HDL-C, Percent Change / LDL-C plus VLDL-C, Percent Change / Total Cholesterol, Percent Change: gerbil plasma; for HDL-C, Before Test / LDL-C plus VLDL-C, Before Test / Total Cholesterol, Before Test: baseline before dosing; for HDL-C, Percent Change / LDL-C plus VLDL-C, Percent Change / Total Cholesterol, Percent Change: p 0.05.

The mark [4] stands for this setting: 1% alcohol (first value of the pair).
[5] abbreviates: 2.5% alcohol (second value of the pair).
[6] abbreviates: 100 mg/kg, four days, no significant difference.
[7] abbreviates: 100 mg/kg, five days, ± standard deviation.
Setting [8] is: 100 mg/kg, five days, significant difference.
[9] abbreviates: 123 mg/kg, four days, significant difference.

The structures appear in SMILES notation.

Description for gerbils: Test compounds were suspended in 0.1% methylcellulose in isotonic saline at a concentration such that the desired dose was given in a volume of 4.0 ml/kg.
On the day before initiation of the experiment and on the day before the last dose, food was removed from the gerbils in the early evening, and at 9 a.m. the next day the animals were bled by heart puncture (0.5 ml) after light ether anesthesia; the animals were dosed approximately 2 hours after bleeding on Day 0 and 2 hours before bleeding on the last dosing day. The blood sample was mixed with a solution of EDTA, 50 mg/ml at pH 7.4, so that the final concentration was 1.5 mg/ml. After swirling, the contents were centrifuged at 1500×g for 10 minutes at 5° C. The plasma was removed from the packed cells and a portion was analyzed for cholesterol utilizing the ABA-100 and A-GENT cholesterol reagent. To 0.100 ml of another portion of plasma was added 0.010 ml of Mg^+2 -phosphotungstate reagent (prepared daily by adding one part of MgCl2, 1.5 M, and 4 parts of sodium phosphotungstate, 4%, adjusted to pH 7.4 with 1.0 N NaOH. The mixture was vortexed and allowed to remain at room temperature for 5 minutes. The sample was centrifuged at 100,000×g for 5 minutes and an aliquot of supernatant analyzed for HDL cholesterol (HDL-C). The difference between total plasma cholesterol and HDL-C (after correction for dilution) was utilized as an estimate of low density plus very low density lipoprotein cholesterol (LDL-C plus VLDL-C). Animals were treated for 5 days in the first experiment and for 4 days in the second.
Controls and test compounds were evaluated in groups of 12 gerbils. The significance of the changes in the plasma parameters was evaluated by a paired t-test; tests of hypothesis were performed at the 0.05 significance level.

In the case of `CC(=O)[C@H]1CC[C@H]2[C@@H]3CCC4=CC(=O)CC[C@]4(C)[C@H]3CC[C@]12C` [Progesterone], the “ACAT inhibition” value in data set [1] (setting [4]) is recorded as 84%; in data set [1] (setting [5]), 74%; in data set [1] (at both alcohol concentrations (1% and 2.5%)), 65-66%. The figures for the “Cholesterol Oleate CPM + S.D.” value in data set [1] (1%) and in data set [1] (2.5%) were 891 ± 555 CPM and 453 ± 61 CPM, respectively. The “Cholesterol Oleate Inhibition Percent” value in data set [1] (1%) is listed as 65%; in data set [1] (2.5%), 66%. Further, the “ACAT inhibition, literature value of the reference standard” value in data set [2] is recorded as 60%.

Regarding `CCCCCCCCCCCCCCCCNc1ccc(C(=O)[O-])cc1.[Na+]`, in data set [3], the “solubility in incubation medium” value is “not completely soluble”. Besides, in the data set with gerbils (100 mg/kg, four days), the “HDL-C, After Test” value stood at 45.1 ± 3.8 mg/dL; the “LDL-C plus VLDL-C, After Test” value came to 44.9 ± 10.6 mg/dL; the “Total Cholesterol, After Test” value stood at 90.0 ± 11.7 mg/dL; the “HDL-C, Before Test” value is 47.1 ± 13.4 mg/dL. In the data set with gerbils (100 mg/kg, four days), the “LDL-C plus VLDL-C, Before Test” value was 45.9 ± 15.3 mg/dL and the “Total Cholesterol, Before Test” value stood at 93.0 ± 13.3 mg/dL. Besides, in the data set with gerbils (setting [6]), the “HDL-C, Percent Change” value is reported as -4%; the “LDL-C plus VLDL-C, Percent Change” value is given as -2%; the “Total Cholesterol, Percent Change” value was -3%. Further, the “ACAT inhibition” value in data set [1] (setting [4]) worked out at 26%. The “ACAT inhibition” value in data set [1] (setting [5]) is 45%. In data set [1] (1%), the “Cholesterol Oleate CPM + S.D.” value is on record as 1917 ± 33 CPM and the “Cholesterol Oleate Inhibition Percent” value was determined as 26%. In data set [1] (2.5%), the “Cholesterol Oleate CPM + S.D.” value was 735 ± 187 CPM and the “Cholesterol Oleate Inhibition Percent” value is listed as 45%.

Turning to `CCCCCCCCCCCCCCCCNc1c(Cl)cc(C(=O)O)cc1Cl` [Compound B, Sodium (3,5-dichloro-4-hexadecylamino)benzoate], in the data set with gerbils (setting [7]), the “HDL-C, Before Test” value came out at 51.7 ± 11.1 mg/dL; the “LDL-C plus VLDL-C, Before Test” value was found to be 44.8 ± 7.1 mg/dL; the “Total Cholesterol, Before Test” value worked out at 96.6 ± 12.9 mg/dL; the “HDL-C, After Test” value is 42.0 ± 7.0 mg/dL. Moreover, in the data set with gerbils (setting [7]), the “LDL-C plus VLDL-C, After Test” value amounted to 35.8 ± 6.0 mg/dL and the “Total Cholesterol, After Test” value came out at 77.7 ± 12.3 mg/dL. Further, in the data set with gerbils (setting [8]), the “HDL-C, Percent Change” value was -19%; the “LDL-C plus VLDL-C, Percent Change” value is -20%; the “Total Cholesterol, Percent Change” value is listed as -20%. In addition, in the data set on gerbils (123 mg/kg, four days), the “HDL-C, After Test” value was found to be 48.8 ± 9.7 mg/dL; the “LDL-C plus VLDL-C, After Test” value stood at 32.1 ± 8.8 mg/dL; the “Total Cholesterol, After Test” value is 81.0 ± 10.2 mg/dL; the “HDL-C, Before Test” value was determined as 53.7 ± 9.9 mg/dL. Also, in the data set with gerbils (123 mg/kg, four days), the “LDL-C plus VLDL-C, Before Test” value was 42.9 ± 16.8 mg/dL and the “Total Cholesterol, Before Test” value was determined as 96.6 ± 20.3 mg/dL. In the data set with gerbils (setting [9]), the “HDL-C, Percent Change” value is -9%; the “LDL-C plus VLDL-C, Percent Change” value is reported as -25%; the “Total Cholesterol, Percent Change” value is -10%. In addition, in the data set on gerbils (gerbils, groups of 12, four days, 123 mg/kg), the “animal deaths in the group” value is listed as “One animal died”.
